Data published in patent EP1541559A1, “5-SUBSTITUTED ISOQUINOLINE DERIVATIVE” (Asahi Kasei Pharma Corporation, priority 2002, dated 2004).
pIC50: −log10 of the molar value. Structures can show the parent of a compound that is named as a salt. Where two headings read alike, the source gives them in different places.

How the values were obtained:
[1] = test system: myosin regulatory light chain; test: Action on amount of phosphorylated myosin regulatory light chain in the cells (Test Example 1); assay type: cell-based, human; conditions: neutrophils of healthy volunteers, reaction with test compound at 25°C for 5 minutes, read-out: Inhibition of myosin regulatory light chain phosphorylation (IC50: µM)
Procedure: The neutrophils were washed with PBS(-) and resuspended in Hanks' Balanced Salt Solution (HBSS+, Gibco) to prepare a cell suspension (8 x 10^6/ml). The cell suspension was diluted to 5 x 10^6/ml, introduced into Eppendorf tubes in a volume of 0.4 ml each, then 0.1 ml each of solutions of a test compound at various concentrations were added to the suspension and allowed to react at 25°C for 5 minutes. After the reaction, 0.1 ml of trichloroacetic acid solution was added to each reaction, the reaction mixture was gently shaken and centrifuged at 12,000 rpm (4°C, 5 minutes), and the supernatant was removed. Subsequently, 3 μl of 1 M Tris solution was added to the residue, the mixture was further mixed with 50 μl of extraction buffer (8 M urea, 0.02% 2-mercaptoethanol, 0.002% bromophenol blue) and left stand at room temperature for 1 hour. Then, the reaction mixture was loaded on a spin column (0.45 μm, Millipore) to remove the insoluble solids and a sample buffer for SDS polyacrylamide gel electrophoresis (25 mM, Tris-HCl pH 6.8, 2.5% 2-mercaptoethanol, 2% sodium dodecylsulfate, 5% sucrose, 0.002% bromophenol blue as final concentrations) was added, and 10 μl of each sample was subjected to electrophoresis. […] J. Physiol., 274, […]-[…] (1998)), which specifically recognize the phosphorylated myosin regulatory light chain, and donkey anti-mouse IgG (Chemicon) conjugated with horseradish peroxidase (HRP-labeled). The band of the phosphorylated myosin regulatory light chain was detected on a film by using ECL Plus Kit (Amersham Pharmacia Biotech). This band was subjected to quantification using a densitometer. By using this value, the inhibitory ratio (%) for phosphorylation of the myosin regulatory light chain was calculated by using the following equation.

thoracic aorta = test: Vasoconstriction inhibitory action on aorta rings constricted with phenylephrine (Test Example 2); design: species or system Rats (Wistar, 11-week old); conditions: for vasoconstriction inhibitory action: result in words, aorta constricted with phenylephrine (1 µM)
Source text: Rats (Wistar, 11-week old) were bleeded to death and laparotomized to take out the thoracic aorta.

Neutrophils = test: Neutrophil migration inhibitory action, Boyden Chamber, FMLP (Test Example 5); assay type: cell-based, human; conditions: Homo sapiens, Neutrophil, 0.5 h, FMLP (1 µM), migration at 37°C for 30 minutes; read-out: Neutrophil migration inhibition IC50
Procedure: Neutrophils were isolated from 50 to 100 ml of peripheral blood collected from healthy donors by the method described in Test Example 1 to obtain a cell suspension (8 x 10^6/ml). Subsequently, solutions of a test compound at various concentrations were introduced into wells of a 96-well plate in a volume of 125 µl per well, the cell suspension of an equivalent volume was added to it and the plate was preincubated at room temperature for 5 minutes. During the preincubation, FMLP (1 µM, Sigma) solution was added to the lower chamber to set Boyden Chamber, the preincubated cell suspension was added to the upper chamber in a volume of 200 µl per well, and the cells were allowed to migrate at 37°C under 5% carbon dioxide for 30 minutes. The filter after the migration was collected, and the non-migrated cells adhered to the surface that faced the upper chamber were carefully wiped off. Then, the migrated cells on the back surface were stained with DifQuick dye solution (International Reagents), washed with water and dried, and then absorbance was measured at 595 nm. The inhibition ratio against migration (%) of a test compound was calculated by using the following equation: Migration inhibition ratio (%) = (1 -Absorbance of the group with addition of test compound /Absorbance of the group without addition of test compound) x 100 [formula]

Japanese white rabbit = test: Intraocular pressure reducing action (Test Example 4); assay type: in vivo; conditions: for intraocular pressure reducing activity: result in words
Procedure: A Japanese white rabbit having a body weight of about 2 kg was placed in a positioner and naturalized for one week before the experiment. An ophthalmologic local […] (Benoxil) was administered to the left eye, and then intraocular pressure was measured by using a tonometer (Classic 30, Solan). The initial value of the intraocular pressure was measured, then 50 μl of a test compound (1% aqueous solution) was dropped to the left eye, and after 2 hours, the intraocular pressure was measured. The intraocular pressure reducing action of the test compounds is shown in Table 7 mentioned below as ratios (%) of reduction of intraocular pressure based on the initial value of the intraocular pressure.

[2] = Homo sapiens, Neutrophil, 5 min

Structure (SMILES) | IC50 [1, 2] [µM] | IC50 ([1]; hydrochloride) [µM] | vasoconstriction inhibitory action (thoracic aorta) | pIC50 (Neutrophils) | intraocular pressure reducing activity (Japanese white rabbit) | inhibition at 1 µM (thoracic aorta; Rattus norvegicus, read-out: Vasoconstriction inhibitory action (relaxation ratio) (%)) [%] | Intraocular pressure reducing action (reduction ratio) (%) (Japanese white rabbit; 50 µl of test compound (1% aqueous solution) dropped to the left eye, after 2 hours) | inhibition in vivo at 1 % (Japanese white rabbit; Oryctolagus cuniculus, topical, 50 µl of test compound (1% aqueous solution) dropped to the left eye, after 2 hours, read-out: Intraocular pressure reducing action (reduction ratio) (%)) [%]
C=Cc1cncc2cccc(NC3CCNCC3)c12.Cl [Example 112, 4-(4-Vinyl-5-isoquinolyl)aminopiperidine hydrochloride] | ≤ 40 | ≤ 20 | significant vasoconstriction inhibitory action | ≥ 4.40 |  |  |  | 
Cl.N#Cc1cncc2cccc(O[C@H]3CC[C@H](N)CC3)c12 [Example 134, Trans-4-[(4-cyano-5-isoquinolyl)oxy]cyclohexylamine hydrochloride] | ≤ 40 | ≤ 20 | significant vasoconstriction inhibitory action |  | significant intraocular pressure reducing activity |  |  | 
Cl.Oc1nccc2c(NC3CCNCC3)cccc12 [Example 115, 4-(1-Hydroxy-5-isoquinolyl)aminopiperidine hydrochloride] |  |  |  |  | significant intraocular pressure reducing activity |  |  | 
CCc1cncc2cccc(NC3CCNCC3)c12.Cl [Example 113, 4-(4-Ethyl-5-isoquinolyl)aminopiperidine hydrochloride] | ≤ 40 | ≤ 20 | significant vasoconstriction inhibitory action | ≥ 4.40 | significant intraocular pressure reducing activity |  |  | 
Cc1cncc2cccc(N[C@H]3CC[C@@H](N)CC3)c12.Cl [Example 120, Cis-N-(4-methyl-5-isoquinolyl)-1,4-cyclohexanediamine hydrochloride] | ≤ 40 | ≤ 20 | significant vasoconstriction inhibitory action |  | significant intraocular pressure reducing activity |  |  | 
Cl.NC1CCC(Nc2cccc3cncc(Br)c23)CC1 (centres unmarked) [Example 107, N-(4-Bromo-5-isoquinolyl)-1,4-cyclohexanediamine hydrochloride] | ≤ 40 | ≤ 20 |  |  | significant intraocular pressure reducing activity |  |  | 
Cc1cncc2cccc(OC3CCNCC3)c12.Cl [Example 139, 4-[(4-Methyl-5-isoquinolyl)oxy]piperidine hydrochloride] | ≤ 40 | ≤ 20 | significant vasoconstriction inhibitory action |  | significant intraocular pressure reducing activity |  |  | 
CC1CNCCN1S(=O)(=O)c1cccc2cnccc12 (centres unmarked) [Example H-7, 1-(5-isoquinolinesulfonyl)-2-methylpiperazine, reference compound] |  |  |  |  |  | 22 |  | 
C=Cc1cncc2cccc(O[C@H]3CC[C@H](N)CC3)c12.Cl [Example 136, Trans-4-[(4-vinyl-5-isoquinolyl)oxy]cyclohexylamine hydrochloride] | ≤ 40 | ≤ 20 | significant vasoconstriction inhibitory action | ≥ 4.40 | significant intraocular pressure reducing activity |  |  | 
Cl.NCCCN(CCS(=O)(=O)c1ccccc1)S(=O)(=O)c1cccc2c(O)nccc12 [Example 13, N-[(1-Hydroxy-5-isoquinolyl)sulfonyl]-N-[2-(phenylsulfonyl)ethyl]-1,3-propylenediamine hydrochloride] | 20 |  | significant vasoconstriction inhibitory action | 5.00 to 6.00 |  |  |  | 
CS(=O)(=O)c1ccc(CCCN(CCCN)S(=O)(=O)c2cccc3cnccc23)cc1.Cl [Example 124, N-[(5-Isoquinolyl)sulfonyl]-N-[3-(4-methanesulfonyl)phenylpropyl]-1,3-propylenediamine hydrochloride] |  | ≤ 20 |  |  |  |  | 12.5 | 
Cl.N[C@H]1CC[C@H](Oc2cccc3cnccc23)CC1 [Example 135, Trans-4-[(5-isoquinolyl)oxy]cyclohexylamine hydrochloride] | ≤ 40 | ≤ 20 |  |  | significant intraocular pressure reducing activity |  |  | 
NCCCN(CCS(=O)(=O)c1ccccc1)S(=O)(=O)c1cccc2cnccc12 [Example 6, N-[(5-Isoquinolyl)sulfonyl]-N-[2-(phenylsulfonyl)ethyl]-1,3-propylenediamine hydrochloride] | 20 |  |  | 5.00 to 6.00 |  |  |  | 
c1cc(OC2CCNCC2)c2ccncc2c1 [Example 27, 4-[(5-Isoquinolyl)oxy]piperidine hydrochloride] | 1 to 20 |  |  | ≥ 4.40 |  |  |  | 
NCCN(CCS(=O)(=O)c1ccccc1)S(=O)(=O)c1cccc2c(N)nccc12 [Example 9, N-[(1-Amino-5-isoquinolyl)sulfonyl]-N-[2-(phenylsulfonyl)ethyl]ethylenediamine hydrochloride] | 15 |  |  | 5.00 to 6.00 |  |  |  | 
CSc1cncc2cccc(NC3CCNCC3)c12.Cl [Example 105, 4-(4-Methylthio-5-isoquinolyl)aminopiperidine hydrochloride] | ≤ 40 |  | significant vasoconstriction inhibitory action |  |  |  |  | 
Nc1cncc2cccc(O[C@H]3CC[C@H](N)CC3)c12 [Example 137, Trans-4-[(4-amino-5-isoquinolyl)oxy]cyclohexylamine hydrochloride] | ≤ 40 | ≤ 20 |  | ≥ 4.40 |  |  |  | 
Brc1cncc2cccc(NC3CCNCC3)c12 [Example 103, 4-(4-Bromo-5-isoquinolyl)aminopiperidine hydrochloride] | ≤ 40 | ≤ 20 |  | 5.00 to 6.00 |  |  |  | 31.3
Cl.OCCCN1CCC(Nc2cccc3cnccc23)CC1 [Example 145, 1-(3-Hydroxypropyl)-4-(5-isoquinolyl)aminopiperidine hydrochloride] | ≤ 40 | ≤ 20 |  | ≥ 4.40 | significant intraocular pressure reducing activity |  |  | 
N[C@H]1CC[C@@H](Nc2cccc3cnccc23)CC1 [Example 23, Cis-N-(5-Isoquinolyl)-1,4-cyclohexanediamine hydrochloride] | 1 to 20 |  |  | 5.00 to 6.00 |  |  |  | 
NCCN(CCCc1ccccc1)S(=O)(=O)c1cccc2cnccc12 [Example 30, N-[(5-isoquinolyl)sulfonyl]-N-(3-phenylpropyl)ethylenediamine] | 20 to 40 |  |  | 5.00 to 6.00 |  |  |  | 
